Measurements: ChEMBL document CHEMBL2417535, “Synthesis and structure-activity relationships evaluation of benzothiazinone derivatives as potential anti-tubercular agents” (Bioorg Med Chem Lett, 2013)
pIC50: −log10 of the molar value. ≈ marks a conversion by molar mass, not a printed value.

Experiments:
[1] = test system: Mycobacterium tuberculosis; assay: Antitubercular activity against Mycobacterium tuberculosis H37Ra ATCC 25177 by microplate alamar blue assay; assay type: functional
[2] = Selectivity index, ratio of IC50 for african green monkey Vero cells to MIC for Mycobacterium tuberculosis H37Ra ATCC 25177; assay type: functional
Vero = assay: Cytotoxicity against african green monkey Vero cells after 72 hrs by MTT assay; assay type: cell-based; settings: Chlorocebus sabaeus
[3] = Selectivity index, ratio of IC50 for african green monkey Vero cells to MIC for Mycobacterium tuberculosis H37Rv ATCC 27294; assay type: functional
[4] = test system: Mycobacterium tuberculosis; assay: Antitubercular activity against Mycobacterium tuberculosis H37Rv ATCC 27294 by microdilution plate assay; assay type: functional
[5] = test system: Mycobacterium tuberculosis; assay: Ratio of isoniazid MIC to compound MIC for Mycobacterium tuberculosis H37Rv ATCC 27294; assay type: functional
[6] = Elimination half life in Sprague-Dawley rat at 10 mg/kg, iv; assay type: ADME, organism-based; set-up: dose 10 mg/kg, route intravenous; settings: in vivo, read-out: beta t1/2 (converted)
[7] = Oral bioavailability in Sprague-Dawley rat at 20 mg/kg; assay type: ADME, organism-based; settings: in vivo
[8] = AUC (0 to infinity) in Sprague-Dawley rat at 10 mg/kg, iv; assay type: ADME, organism-based; set-up: time infinity, dose 10 mg/kg, route intravenous; settings: plasma
Mus musculus = assay: Acute toxicity in BALB/c mouse assessed as mortality at 2 g/kg, po; assay type: organism-based; settings: in vivo, 2000 mg/kg
[9] = Lipophilicity, log P of the compound by shake flask method; assay type: physicochemical; settings: octanol/water
[10] = Elimination half life in Sprague-Dawley rat at 20 mg/kg, po; assay type: ADME, organism-based; set-up: dose 20 mg/kg, route oral; settings: in vivo, read-out: beta t1/2 (converted)
[11] = Tmax in Sprague-Dawley rat at 20 mg/kg, po; assay type: ADME, organism-based; set-up: dose 20 mg/kg, route oral; settings: in vivo
[12] = Cmax in Sprague-Dawley rat at 20 mg/kg, po; assay type: ADME, organism-based; set-up: dose 20 mg/kg, route oral; settings: in vivo
[13] = Cmax in Sprague-Dawley rat at 10 mg/kg, iv; assay type: ADME, organism-based; set-up: dose 10 mg/kg, route intravenous; settings: in vivo
Mycobacterium avium = assay: Antitubercular activity against Mycobacterium avium ATCC 25291 by microdilution plate assay; assay type: functional, Mycobacterium avium subsp. avium ATCC 25291
[14] = test system: Mycolicibacterium smegmatis; assay: Antitubercular activity against Mycobacterium smegmatis MC2 155 by microplate alamar blue assay; assay type: functional; settings: str. MC2 155
[15] = AUC (0 to infinity) in Sprague-Dawley rat at 20 mg/kg, po; assay type: ADME, organism-based; set-up: dose 20 mg/kg, route oral, time infinity; settings: plasma

SMILES | MIC [1] [µM] | Selectivity Index [2] | pIC50 (Vero) | Selectivity Index [3] | MIC [4] [µM] | also measured
CC(C)(C)OC(=O)N1CCN(c2nc(=O)c3cc([N+](=O)[O-])cc([N+](=O)[O-])c3s2)CC1 | 0.4 (≈ 175 ng/mL) | – | – | – | – | –
CCCNc1nc(=O)c2cc([N+](=O)[O-])cc([N+](=O)[O-])c2s1 | 3.1 (≈ 962 ng/mL) | – | – | – | – | –
CCCCNc1nc(=O)c2cc([N+](=O)[O-])cc([N+](=O)[O-])c2s1 | 0.8 (≈ 259 ng/mL) | – | – | – | – | –
CC(C)CNc1nc(=O)c2cc([N+](=O)[O-])cc([N+](=O)[O-])c2s1 | 1.6 (≈ 519 ng/mL) | – | – | – | – | –
CC(C)(C)Nc1nc(=O)c2cc([N+](=O)[O-])cc([N+](=O)[O-])c2s1 | 0.4 (≈ 130 ng/mL) | – | – | – | – | –
CC1CCN(c2nc(=O)c3cc([N+](=O)[O-])cc([N+](=O)[O-])c3s2)CC1 | 0.2 (≈ 70.1 ng/mL) | – | – | – | – | –
CCNc1nc(=O)c2cc(C(F)(F)F)cc([N+](=O)[O-])c2s1 | 6.3 (≈ 2010 ng/mL) | >16 | < 4.00 | – | – | –
CCCNc1nc(=O)c2cc(C(F)(F)F)cc([N+](=O)[O-])c2s1 | 1.6 (≈ 533 ng/mL) | >62 | < 4.00 | – | – | –
CCCCNc1nc(=O)c2cc(C(F)(F)F)cc([N+](=O)[O-])c2s1 | 0.8 (≈ 278 ng/mL) | >125 | < 4.00 | – | – | –
CC(C)CNc1nc(=O)c2cc(C(F)(F)F)cc([N+](=O)[O-])c2s1 | 0.8 (≈ 278 ng/mL) | >125 | < 4.00 | – | – | –
CCN(CC)c1nc(=O)c2cc(C(F)(F)F)cc([N+](=O)[O-])c2s1 | 0.8 (≈ 278 ng/mL) | >125 | < 4.00 | – | – | –
O=c1nc(NC2CC2)sc2c([N+](=O)[O-])cc(C(F)(F)F)cc12 | 0.4 (≈ 133 ng/mL) | >250 | < 4.00 | – | – | –
O=c1nc(NC2CCCC2)sc2c([N+](=O)[O-])cc(C(F)(F)F)cc12 | 0.8 (≈ 287 ng/mL) | >125 | < 4.00 | – | – | –
O=c1nc(N2CCCC2)sc2c([N+](=O)[O-])cc(C(F)(F)F)cc12 | 0.8 (≈ 276 ng/mL) | >125 | < 4.00 | – | – | –
O=c1nc(N2CCCCC2)sc2c([N+](=O)[O-])cc(C(F)(F)F)cc12 | 0.8 (≈ 287 ng/mL) | – | < 4.00 | >142 | 0.7 (≈ 252 ng/mL) | –
O=c1nc(N2CCOCC2)sc2c([N+](=O)[O-])cc(C(F)(F)F)cc12 | 3.1 (≈ 1120 ng/mL) | >32 | < 4.00 | – | – | –
CC1CCN(c2nc(=O)c3cc(C(F)(F)F)cc([N+](=O)[O-])c3s2)CC1 | 0.1 (≈ 37.3 ng/mL) | – | < 4.00 | >1250 | 0.08 (≈ 29.9 ng/mL) | Ratio [5]: 2.5
O=C(O)C1CCN(c2nc(=O)c3cc(C(F)(F)F)cc([N+](=O)[O-])c3s2)CC1 | 3.1 (≈ 1250 ng/mL) | >32 | < 4.00 | – | – | –
CC(C)(C)OC(=O)N1CCN(c2nc(=O)c3cc(C(F)(F)F)cc([N+](=O)[O-])c3s2)CC1 | 0.02 (≈ 9.21 ng/mL) | – | < 4.00 | >3000 | 0.03 (≈ 13.8 ng/mL) | Ratio [5]: 6.7
O=c1nc(N2CCC3(CC2)OCCS3)sc2c([N+](=O)[O-])cc(C(F)(F)F)cc12 | 0.002 (≈ 0.867 ng/mL) | – | < 4.00 | >50000 | 0.002 (≈ 0.867 ng/mL) | –
O=c1nc(N2CCC3(CC2)SCCS3)sc2c([N+](=O)[O-])cc(C(F)(F)F)cc12 | 0.001 (≈ 0.45 ng/mL) | – | < 4.00 | >1000000 | 0.0001 (≈ 0.045 ng/mL) | half-life [6]: 2.5 h; bioavailability [7]: 26%; AUC(0-inf) [8]: 1480 ng·h/mL; Activity (Mus musculus): Non-toxic; logP [9]: 3.94; half-life [10]: 5.4 h; Tmax [11]: 0.5 h; Cmax [12]: 560 ng/mL; Cmax [13]: 1720 ng/mL; MIC (Mycobacterium avium): 36 µM (≈ 16200 ng/mL); MIC [14]: 0.0063 µM (≈ 2.83 ng/mL); AUC(0-inf) [15]: 780 ng·h/mL; Ratio [5]: 2000
CC1COC2(CCN(c3nc(=O)c4cc(C(F)(F)F)cc([N+](=O)[O-])c4s3)CC2)O1 (racemic) | 0.004 (≈ 1.73 ng/mL) | – | < 4.00 | >50000 | 0.002 (≈ 0.863 ng/mL) | logP [9]: 2.69; MIC (Mycobacterium avium): 74 µM (≈ 31900 ng/mL); MIC [14]: 0.013 µM (≈ 5.61 ng/mL)
NNC(=O)c1ccncc1 [ISONIAZID] | 0.8 (≈ 110 ng/mL) | – | < 4.00 | >500 | 0.2 (≈ 27.4 ng/mL) | –
